# Reference: US20090270371A1, “QUINOLINE DERIVATIVES USEFUL IN THE TREATMENT OF MGLUR5 RECEPTOR-MEDIATED DISORDERS” (priority 2005, published 2009)
# Target: T1, rat mGluR5 receptors (Rattus norvegicus, UniProt P31424)
# T1 construct: rat cerebro-cortical membrane preparation was used; from tissue; host or cells: rat cerebral cortex membranes
# Experiment: mGluR5 receptor binding test, rat cerebro-cortical membrane preparation, [3H]-M-MPEP
# Conditions: affinity for rat mGluR5 receptors; [3H]-M-MPEP (2 nM) radioligand
# Procedure: The mGluR5 receptor binding was determined according to the modified method of Gasparini et. al. (Bioorg. Med. Chem. Lett., 2000, 12, 407). Based on the high homology between the human and rat mGluR5 receptors, rat cerebro-cortical membrane preparation was used to determine the binding characteristics of the reference compounds and novel compounds to the rat mGluR5. The A18 cell line expressing hmGluR5a (purchased from Euroscreen) was used to determine binding characteristics of the chemical compounds to the human mGluR5a receptor. [^3H]-M-MPEP (2 nM) was used as radioligand. The nonspecific binding was determined in the presence of 10 μM M-MPEP.
# T1 sequence (P31424 21-1203): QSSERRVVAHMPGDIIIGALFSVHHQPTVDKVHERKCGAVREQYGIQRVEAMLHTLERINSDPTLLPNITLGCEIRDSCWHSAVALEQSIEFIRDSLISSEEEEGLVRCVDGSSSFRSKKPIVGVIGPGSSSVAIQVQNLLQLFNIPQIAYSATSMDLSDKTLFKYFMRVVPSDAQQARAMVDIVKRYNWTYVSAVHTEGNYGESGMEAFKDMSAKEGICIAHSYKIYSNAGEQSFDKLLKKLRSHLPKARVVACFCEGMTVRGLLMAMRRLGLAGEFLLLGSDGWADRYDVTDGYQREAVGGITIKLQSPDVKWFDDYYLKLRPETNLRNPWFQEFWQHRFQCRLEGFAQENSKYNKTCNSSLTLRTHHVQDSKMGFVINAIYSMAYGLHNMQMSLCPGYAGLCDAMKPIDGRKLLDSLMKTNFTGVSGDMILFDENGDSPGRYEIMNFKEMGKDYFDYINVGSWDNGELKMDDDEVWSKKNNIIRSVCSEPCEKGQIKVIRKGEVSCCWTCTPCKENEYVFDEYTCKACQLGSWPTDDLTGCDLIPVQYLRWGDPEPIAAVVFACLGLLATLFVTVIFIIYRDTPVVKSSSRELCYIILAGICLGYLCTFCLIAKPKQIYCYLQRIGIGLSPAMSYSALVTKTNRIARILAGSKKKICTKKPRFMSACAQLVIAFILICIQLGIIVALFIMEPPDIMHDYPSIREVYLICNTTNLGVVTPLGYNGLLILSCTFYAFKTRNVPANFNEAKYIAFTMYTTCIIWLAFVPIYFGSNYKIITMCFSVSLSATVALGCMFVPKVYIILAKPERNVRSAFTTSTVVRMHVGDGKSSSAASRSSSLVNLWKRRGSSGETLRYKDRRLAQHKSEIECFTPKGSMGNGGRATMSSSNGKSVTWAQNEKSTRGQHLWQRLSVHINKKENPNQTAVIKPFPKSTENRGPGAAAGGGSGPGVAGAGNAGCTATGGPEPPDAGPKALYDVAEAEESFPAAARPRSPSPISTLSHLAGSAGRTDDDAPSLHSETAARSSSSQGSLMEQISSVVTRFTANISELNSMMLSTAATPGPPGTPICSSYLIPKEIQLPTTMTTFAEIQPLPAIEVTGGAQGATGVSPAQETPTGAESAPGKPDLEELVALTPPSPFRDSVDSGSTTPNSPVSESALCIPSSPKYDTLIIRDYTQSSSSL
row,Compound,Ki
1,Cc1ccc2ncc(S(=O)(=O)c3ccc(C)c(C)c3)c(N3CCC(C)CC3)c2c1 [Compound 161],< 0.2 µM
2,COc1ccc(S(=O)(=O)c2cnc3ccc(C)cc3c2N2CCC(C)CC2)cc1Cl [Compound 162],< 0.2 µM
3,Cc1ccc2ncc(S(=O)(=O)c3cccc(Cl)c3)c(N3CCC(C)CC3)c2c1 [Compound 163],< 0.2 µM
4,Cc1ccc2ncc(S(=O)(=O)c3ccc(Cl)c(Cl)c3)c(N3CCC(C)CC3)c2c1 [Compound 164],< 0.2 µM
5,Cc1ccc2ncc(S(=O)(=O)c3ccc(C)c(F)c3)c(N3CCC(C)CC3)c2c1 [Compound 165],< 0.2 µM
6,Cc1ccc2ncc(S(=O)(=O)c3ccc(C#N)cc3)c(N3CCC(C)CC3)c2c1 [Compound 166],0.2 to 0.5 µM
7,Cc1ccc2ncc(S(=O)(=O)c3ccc(C)c(Cl)c3)c(N3CCC(C)CC3)c2c1 [Compound 167],< 0.2 µM
8,Cc1cc(C)cc(S(=O)(=O)c2cnc3ccc(C)cc3c2N2CCC(C)CC2)c1 [Compound 168],0.2 to 0.5 µM
9,Cc1ccc2ncc(S(=O)(=O)c3ccc(F)c(Cl)c3)c(N3CCC(C)CC3)c2c1 [Compound 169],< 0.2 µM
10,CC1CCN(c2c(S(=O)(=O)c3cc(F)cc(F)c3)cnc3cc(F)ccc23)CC1 [Compound 170],0.2 to 0.5 µM
11,Cc1ccc(S(=O)(=O)c2cnc3cc(F)ccc3c2N2CCC(C)CC2)cc1 [Compound 171],< 0.2 µM
12,CC1CCN(c2c(S(=O)(=O)c3ccc(F)cc3)cnc3cc(F)ccc23)CC1 [Compound 172],0.2 to 0.5 µM
13,CC1CCN(c2c(S(=O)(=O)c3ccccc3)cnc3cc(F)ccc23)CC1 [Compound 173],< 0.2 µM
14,CC1CCN(c2c(S(=O)(=O)c3ccc(Cl)cc3)cnc3cc(F)ccc23)CC1 [Compound 174],< 0.2 µM
15,COc1cccc(S(=O)(=O)c2cnc3cc(F)ccc3c2N2CCC(C)CC2)c1 [Compound 175],< 0.2 µM
16,CC1CCN(c2c(S(=O)(=O)c3ccc(Cl)c(Cl)c3)cnc3cc(F)ccc23)CC1 [Compound 176],< 0.2 µM
17,CC1CCN(c2c(S(=O)(=O)c3cc(Cl)cc(Cl)c3)cnc3cc(F)ccc23)CC1 [Compound 177],< 0.2 µM
18,Cc1ccc(S(=O)(=O)c2cnc3cc(F)ccc3c2N2CCC(C)CC2)cc1F [Compound 178],< 0.2 µM
19,CC1CCN(c2c(S(=O)(=O)c3cccc(C#N)c3)cnc3cc(F)ccc23)CC1 [Compound 179],< 0.2 µM
20,CC1CCN(c2c(S(=O)(=O)c3ccc(C#N)cc3)cnc3cc(F)ccc23)CC1 [Compound 180],< 0.2 µM

row,Compound,Ki
1,Cc1ccc(S(=O)(=O)c2cnc3cc(F)ccc3c2N2CCC(C)CC2)cc1Cl [Compound 181],< 0.2 µM
2,COc1ccc(S(=O)(=O)c2cnc3cc(F)ccc3c2N2CCC(C)CC2)cc1OC [Compound 182],< 0.2 µM
3,Cc1ccc(S(=O)(=O)c2cnc3cc(F)ccc3c2N2CCC(C)CC2)cc1C [Compound 183],< 0.2 µM
4,Cc1cc(C)cc(S(=O)(=O)c2cnc3cc(F)ccc3c2N2CCC(C)CC2)c1 [Compound 184],0.2 to 0.5 µM
5,COc1ccc(S(=O)(=O)c2cnc3cc(F)ccc3c2N2CCC(C)CC2)cc1 [Compound 185],< 0.2 µM
6,CC1CCN(c2c(S(=O)(=O)c3ccc(F)c(F)c3)cnc3cc(F)ccc23)CC1 [Compound 186],< 0.2 µM
7,CC1CCN(c2c(S(=O)(=O)c3ccc(F)c(Cl)c3)cnc3cc(F)ccc23)CC1 [Compound 187],< 0.2 µM
8,CC1CCN(c2c(S(=O)(=O)c3cc(Cl)cc(Cl)c3)cnc3cc(Cl)ccc23)CC1 [Compound 188],< 0.2 µM
9,CC1CCN(c2c(S(=O)(=O)c3cc(F)cc(F)c3)cnc3cc(Cl)ccc23)CC1 [Compound 189],< 0.2 µM
10,CC1CCN(c2c(S(=O)(=O)c3cccc(C#N)c3)cnc3cc(Cl)ccc23)CC1 [Compound 190],< 0.2 µM
11,Cc1ccc(S(=O)(=O)c2cnc3cc(Cl)ccc3c2N2CCC(C)CC2)cc1 [Compound 191],< 0.2 µM
12,CC1CCN(c2c(S(=O)(=O)c3ccc(F)cc3)cnc3cc(Cl)ccc23)CC1 [Compound 192],< 0.2 µM
13,COc1ccc(S(=O)(=O)c2cnc3cc(Cl)ccc3c2N2CCC(C)CC2)cc1 [Compound 193],0.2 to 0.5 µM
14,CC1CCN(c2c(S(=O)(=O)c3ccccc3)cnc3cc(Cl)ccc23)CC1 [Compound 194],< 0.2 µM
15,"CC1CCN(c2c(S(=O)(=O)c3ccc(Cl)cc3)cnc3cc(Cl)ccc23)CC1 [Compound 195, 7-Chloro-3-(4-chloro-benzenesulfonyl)-4-(4-methyl-piperidin-1-yl)-quinoline]",< 0.2 µM
16,COc1ccc(S(=O)(=O)c2cnc3cc(Cl)ccc3c2N2CCC(C)CC2)cc1OC [Compound 196],< 0.2 µM
17,CC1CCN(c2c(S(=O)(=O)c3cccc(F)c3)cnc3cc(Cl)ccc23)CC1 [Compound 197],< 0.2 µM
18,COc1cccc(S(=O)(=O)c2cnc3cc(Cl)ccc3c2N2CCC(C)CC2)c1 [Compound 198],< 0.2 µM
19,Cc1ccc(S(=O)(=O)c2cnc3cc(Cl)ccc3c2N2CCC(C)CC2)cc1C [Compound 199],< 0.2 µM
20,COc1ccc(S(=O)(=O)c2cnc3cc(Cl)ccc3c2N2CCC(C)CC2)cc1Cl [Compound 200],< 0.2 µM

row,Compound,Ki
1,CC1CCN(c2c(S(=O)(=O)c3cccc(Cl)c3)cnc3cc(Cl)ccc23)CC1 [Compound 201],< 0.2 µM
2,CC1CCN(c2c(S(=O)(=O)c3ccc(Cl)c(Cl)c3)cnc3cc(Cl)ccc23)CC1 [Compound 202],< 0.2 µM
3,Cc1ccc(S(=O)(=O)c2cnc3cc(Cl)ccc3c2N2CCC(C)CC2)cc1F [Compound 203],< 0.2 µM
4,CC1CCN(c2c(S(=O)(=O)c3ccc(C#N)cc3)cnc3cc(Cl)ccc23)CC1 [Compound 204],0.2 to 0.5 µM
5,Cc1ccc(S(=O)(=O)c2cnc3cc(Cl)ccc3c2N2CCC(C)CC2)cc1Cl [Compound 205],< 0.2 µM
6,CC1CCN(c2c(S(=O)(=O)c3ccc(F)c(F)c3)cnc3cc(Cl)ccc23)CC1 [Compound 206],< 0.2 µM
7,CC1CCN(c2c(S(=O)(=O)c3ccc(F)c(Cl)c3)cnc3cc(Cl)ccc23)CC1 [Compound 207],< 0.2 µM
8,CC1CCN(c2c(S(=O)(=O)c3cc(Cl)cc(Cl)c3)cnc3ccc(Cl)cc23)CC1 [Compound 208],< 0.2 µM
9,CC1CCN(c2c(S(=O)(=O)c3cc(F)cc(F)c3)cnc3ccc(Cl)cc23)CC1 [Compound 209],< 0.2 µM
10,CC1CCN(c2c(S(=O)(=O)c3cccc(C#N)c3)cnc3ccc(Cl)cc23)CC1 [Compound 210],< 0.2 µM
11,Cc1ccc(S(=O)(=O)c2cnc3ccc(Cl)cc3c2N2CCC(C)CC2)cc1 [Compound 211],< 0.2 µM
12,CC1CCN(c2c(S(=O)(=O)c3ccc(F)cc3)cnc3ccc(Cl)cc23)CC1 [Compound 212],< 0.2 µM
13,CC1CCN(c2c(S(=O)(=O)c3ccc(Cl)cc3)cnc3ccc(Cl)cc23)CC1 [Compound 213],< 0.2 µM
14,CC1CCN(c2c(S(=O)(=O)c3cccc(F)c3)cnc3ccc(Cl)cc23)CC1 [Compound 214],0.2 to 0.5 µM
15,COc1cccc(S(=O)(=O)c2cnc3ccc(Cl)cc3c2N2CCC(C)CC2)c1 [Compound 215],< 0.2 µM
16,CC1CCN(c2c(S(=O)(=O)c3cccc(Cl)c3)cnc3ccc(Cl)cc23)CC1 [Compound 216],> 0.5 µM
17,Cc1ccc(S(=O)(=O)c2cnc3ccc(Cl)cc3c2N2CCC(C)CC2)cc1F [Compound 217],0.2 to 0.5 µM
18,CC1CCN(c2c(S(=O)(=O)c3ccc(C#N)cc3)cnc3ccc(Cl)cc23)CC1 [Compound 218],> 0.5 µM
